Experimental data published in article PMC11784221, “Platelet factor 4-derived C15 peptide broadly inhibits enteroviruses by disrupting viral attachment” (Journal of Virology, 2025).
Where no end group is shown, it is not given here.

How the values were obtained:
[1] = C15 alone in neonatal mice without CA6 infection (toxicity); format: in vivo, ICR mice
Method: To investigate the anti-viral efficacy of C15 against CA6 in vivo, we established a lethal infection model using 1-day-old ICR mice. The mice were infected with CA6 at a concentration of 10^7 TCID50 and then treated with two different concentrations of C15 (1 and 5 mg/kg). The mice were monitored over a period of 7 days to assess various indicators (Fig. 7A). The mice in the control group, which received Dulbecco’s Modified Eagle Medium (DMEM) alone, began to succumb to the infection on day 4, with all mice dying by day 6. On day 6, the average clinical score of the mice in the control group was 5. […] Treatment with 1 mg/kg C15 improved survival rates by 60%, while 5 mg/kg C15 provided complete protection, achieving a 100% survival rate (Fig. 7D).
ICR pregnant specific pathogen-free mice were purchased from Beijing Vital River Laboratory. Pregnant mice gave birth approximately 5 days after arrival at the laboratory. One day-old ICR neonatal mice were used to establish the CA6 infection mouse model. The CA6 virus, at a concentration of 10^7 TCID50/mL, was mixed with varying concentrations of C15 (1 and 5 mg/kg) and intracranially injected into the 1 day-old neonatal mice (10 µL per mouse). Five experimental groups were designed, and observations of various indicators were conducted over the subsequent 7 days, as well as samples collected for analysis. […]

[2] = test system: EVD68; conditions: read-out: EC50 for EVD68; RD cells, 48 h, intracellular VP1 mRNA by RT-qPCR vs GAPDH, three independent experiments, four-parameter fit
[3] = test system: CA6; conditions: read-out: EC50 for CA6; RD cells, 48 h, intracellular VP1 mRNA by RT-qPCR vs GAPDH, three independent experiments, four-parameter fit
[4] = test system: RD cells; conditions: 48 h treatment, CCK-8, absorbance 450 nm, n = 3
[5] = test system: EV71; conditions: read-out: EC50 for EV71; RD cells, 48 h, intracellular VP1 mRNA by RT-qPCR vs GAPDH, three independent experiments, four-parameter fit
[6] = test system: CA16; conditions: read-out: EC50 for CA16; RD cells, 48 h, intracellular VP1 mRNA by RT-qPCR vs GAPDH, three independent experiments, four-parameter fit
[7] = test system: EVD68; assay: Purified PF4-His added to cells infected with EVD68; format: cell-based, enterovirus D68; conditions: increasing doses of purified PF4-His, 48 h, Western blot, RT-qPCR, TCID50
Method: (§1) (A and B) HEK-293T cells transfected with cDNA-PF4-Myc or the VR1012 expression vector serving as a control. […] (C and D) Viral loads in the supernatant were evaluated by measuring VP1 gene mRNA levels using reverse transcription quantitative PCR (RT-qPCR). (E and H) PF4-His proteins expressed in Escherichia coli were added to the cell supernatant at the indicated concentration, and the cells were simultaneously infected with CA6 or EVD68. Cell lysates and supernatants (concentrated 100-fold) were collected at 48 h. Western blot was performed to detect the viral VP1 protein in the cells and supernatant, with tubulin serving as a loading control. (F and I) Intracellular mRNA levels of VP1 were determined by RT-qPCR, using GAPDH as a control. (G and J) 50% tissue culture infective dose (TCID50) assays were performed using supernatants collected from infected rhabdomyosarcoma cells at 48 h, containing various concentrations of PF4-His.
(§2) PF4 is a secreted protein. To further assess its anti-viral potential, PF4 proteins were expressed and purified from Escherichia coli. […]
(§3) The cDNA of PF4-His with His tag at the N-terminus was synthesized and inserted into PEXs-DH by Comate Bioscience Company and expressed in E. coli BL21-derived cells. […] The […] of the resulting proteins was determined through BCA Protein Assay Kits (Epizyme, #ZJ102L) analysis.

[8] = test system: CA6; assay: Purified PF4-His added to cells infected with CA6; format: cell-based, coxsackievirus A6; conditions: increasing doses of purified PF4-His, 48 h, Western blot, RT-qPCR, TCID50
Method: as §1, §2, §3

[9] = biological target: Coxsackievirus A6 (CA6) virion, strain changchun046/CHN/2013 (coxsackievirus A6)
[10] = biological target: Enterovirus D68 (EVD68) virion, strain US/KY/14-18953 (enterovirus D68)

With QAPLYKKIIKKLLES [C15] the “Toxicity in neonatal mice (clinical scores, body weight, survival rates versus DMEM control)” value ([1]; 5 mg/kg C15 without CA6 infection, intracranial, 1-day-old ICR mice) was “no toxicity”, the “VITT-related symptoms (weight loss, nosebleeds, gum bleeding, gastrointestinal bleeding)” value ([1]; injection of C15 alone in mice) was “did not result in VITT-related symptoms” and the EC50 [2] was 5.41 nM. The EC50 [3] was 3.12 nM, the 50% cytotoxic concentration [4] was > 100 µM and the EC50 [5] was 5.36 nM. For the same molecule, the EC50 [6] was 10 nM.

B1: PF4-His: Platelet factor 4 with His tag at the N-terminus, expressed in E. coli and purified (protein)
chain: EAEEDGDLQCLCVKTTSQVRPRHITSLEVIKAGPHCPTAQLIATLKNGRKICLDLQAPLYKKIIKKLLES
modifications: left off: Myc, N-terminal, kept
notes: Platelet factor 4 with His tag at the N-terminus, expressed in E. coli and purified
In the case of B1, the “VP1 protein and mRNA levels of EVD68 and viral titer in supernatant” value [7] is reported as “gradually decreased” and the “VP1 protein and mRNA levels of CA6 and viral titer in supernatant” value [8] is reported as “gradually decreased”.

QAPLYKKIIKKLLES [C15 peptide (C-terminal 15 amino acids of PF4)] showed an EC50 of inhibition of CA6 replication in RD cells (intracellular VP1 mRNA by RT-qPCR, 48 h) [9] of 3.12 nM and an EC50 of inhibition of EVD68 replication in RD cells (intracellular VP1 mRNA by RT-qPCR, 48 h) [10] of 5.41 nM.
